From patent publication US9169241B2, “Quinolinyloxyphenylsulfonamides” (Max-Planck-Gesellschaft Zur Forderung der Wissenschaften …, priority 2009, dated 2015)
Like-named read-outs stand apart in the source and are kept apart here.

Columns and labels:
[1] = tested on: cells; assay: Boyden chamber migration assay (Table VI); type: cell-based; settings: Homo sapiens, Hs-578T, 16 h, Hs578T cells; 16 h migration
How it was run: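 20000 cells seeded in the upper compartment in 0% FCS plus 0.1% BSA and left 16 h to migrate through […] membrane toward 10% FCS medium below. Non-migrated cells swabbed off; cells on the filter underside fixed and counted.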

[2] = tested on: indicated cell line; assay: Wound healing migration assay (Table IV); type: cell-based; settings: compounds at 12.5, 6.25, 3.125 μM, 48 h-72 h
How it was run: (§1)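 Cells seeded at 150000/24 well, grown to monolayer overnight, scratched with a pipette tip, then treated with compound at 12.5, 6.25 or 3.125 μM versus DMSO. Stopped by crystal violet fixation at 48-72 h once control wounds closed; IC50 taken as 50% wound size between t0 and t48 or t72.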

[3] = tested on: SF126; assay: Cell vitality assay (ATP assay, CellTiter-Glo); type: cell-based; settings: Homo sapiens, SF-126; SF126, 72 h; Table IIa; read-out: IC50 ATP-Assay after 72 h SF126
How it was run: (§2)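 Steps: seed 1000 cells per well; add compound (0.195–12.5 μM, 7 points) or DMSO; incubate 72 h; equilibrate to room temperature ~30 min; add reagent, shake 2 min, stand 10 min; read luminescence. IC50 relative to DMSO-control ATP.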

[4] = tested on: U138; assay: Cell vitality assay (ATP assay, CellTiter-Glo); type: cell-based; settings: U138, 72 h; Table IIa; read-out: IC50 ATP-Assay after 72 h U138
How it was run: as §2

[5] = tested on: SF763; assay: Cell vitality assay (ATP assay, CellTiter-Glo); type: cell-based; settings: SF763, 72 h; Table IIa; read-out: IC50 ATP-Assay after 72 h SF763
How it was run: as §2

[6] = tested on: U118; assay: Cell vitality assay (ATP assay, CellTiter-Glo); type: cell-based; settings: U118, 72 h; Table IIa; read-out: IC50 ATP-Assay after 72 h U118
How it was run: as §2

[7] = tested on: Hs578T; assay: Cell vitality assay (ATP assay, CellTiter-Glo); type: cell-based; settings: Homo sapiens, Hs-578T, 72 h
How it was run: as §2

[8] = tested on: Hs578T; assay: Matrigel outgrowth assay/branching assay; type: cell-based; settings: Homo sapiens, Hs-578T; HS578T cell line; Table Ib; read-out: Total branching inhibition in Matrigel HS578T
How it was run: (§3)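 Step one: Matrigel (3 mg/ml) is set for 1 h at 37° C. Step two: 5000 cells per well go on in medium with compound (0.78–3.125 μM) or DMSO. Step three: images at 48, 72 and 96 h are scored for complete loss of branching.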

[9] = tested on: Hs578T; assay: Wound healing migration assay; type: cell-based; settings: Homo sapiens, Hs-578T; HS578T cell line; Table Ib
How it was run: as §1

[10] = tested on: SF126; assay: Matrigel outgrowth assay/branching assay; type: cell-based; settings: Homo sapiens, SF-126, Table Vb, read-out: Total branching inhibition in Matrigel SF126
How it was run: as §3

[11] = tested on: U118; assay: Matrigel outgrowth assay/branching assay; type: cell-based; settings: Table Vb, read-out: Total branching inhibition in Matrigel U118
How it was run: as §3

[12] = tested on: A172; assay: Matrigel outgrowth assay/branching assay; type: cell-based; settings: Homo sapiens, A 172, Table Vb, read-out: Total branching inhibition in Matrigel A172
How it was run: as §3

[13] = Homo sapiens, A 172, A172 cells, read-out: IC50 Wound healing Assay A172
[14] = Homo sapiens, SF-126, SF126 cells, read-out: IC50 Wound healing Assay SF126
[15] = U118 cells, read-out: IC50 Wound healing Assay U118
[16] = HS578T cell line, Table Ib, read-out: IC50 ATP-Assay HS578T after 72 h

With `COc1cc2c(Oc3ccc(NS(=O)(=O)c4ccccc4C(F)(F)F)cc3F)ccnc2cc1OCCCNC1CCOCC1` [Example 95, N-(3-Fluoro-4-{6-methoxy-7-[3-(tetrahydro-pyran-4-ylamino)-propoxy]-quinolin-4-yloxy}-phenyl)-2-trifluoromethyl-benzenesulfonamide] the IC50 [1] was no more than 5 µM, the IC50 ([2]; Homo sapiens, C8161 cells, read-out: IC50 Wound healing Assay C8161) was 12.5 to 50 µM and the IC50 ([2]; SF763 cells, read-out: IC50 Wound healing Assay SF763) was 12.5 to 50 µM. The IC50 [3] was no more than 12.5 µM, the IC50 [4] was no more than 12.5 µM and the IC50 [5] was no more than 12.5 µM. It also gave an IC50 [6] of no more than 12.5 µM, an IC50 ([7]; Hs578T, Table IIa, read-out: IC50 ATP-Assay after 72 h Hs578T) of 12.5 to 50 µM and an IC50 [8] of no more than 10 µM.
`COc1cc2c(Oc3ccc(NS(=O)(=O)c4ccccc4OC(F)(F)F)cc3F)ccnc2cc1OCCCN(C)C` [Example 179, N-{4-[7-(3-Dimethylamino-propoxy)-6-methoxy-quinolin-4-yloxy]-3-fluoro-phenyl}-2-trifluoromethoxy-benzenesulfonamide] showed a melting point of 94 to 96 °C, an IC50 [2, 13] of no more than 12.5 µM and an IC50 [2, 14] of no more than 12.5 µM. For the same molecule, the IC50 [2, 15] was 12.5 to 50 µM, the IC50 [9] was no more than 12.5 µM and the IC50 [3] was no more than 12.5 µM. It also gave an IC50 [6] of no more than 12.5 µM, an IC50 [7, 16] of no more than 12.5 µM and an IC100 [10] of no more than 12.5 µM. The IC100 [11] was no more than 12.5 µM, the IC100 [12] was greater than 12.5 µM and the IC50 [8] was 10 to 25 µM.
With `COc1cc2c(Oc3ccc(NS(=O)(=O)c4c(Cl)cccc4Cl)cc3F)ccnc2cc1OCCCN(C)C` [Example 181, 2,6-Dichloro-N-{4-[7-(3-dimethylamino-propoxy)-6-methoxy-quinolin-4-yloxy]-3-fluoro-phenyl}-benzenesulfonamide] the melting point was 197 to 198 °C, the IC50 [2, 13] was no more than 12.5 µM and the IC50 [2, 14] was no more than 12.5 µM. It also gave an IC50 [2, 15] of no more than 12.5 µM, an IC50 [9] of no more than 12.5 µM and an IC50 [3] of no more than 12.5 µM. For the same molecule, the IC50 [6] was no more than 12.5 µM, the IC50 [7, 16] was no more than 12.5 µM and the IC100 [10] was no more than 12.5 µM. The IC100 [11] was no more than 12.5 µM, the IC100 [12] was greater than 12.5 µM and the IC50 [8] was no more than 10 µM.
`COC(=O)c1sccc1S(=O)(=O)Nc1ccc(Oc2ccnc3cc(OCCCN(C)C)c(OC)cc23)c(F)c1` [Example 184, 3-{4-[7-(3-Dimethylamino-propoxy)-6-methoxy-quinolin-4-yloxy]-3-fluoro-phenylsulfamoyl}-thiophene-2-carboxylic acid methyl ester] showed a melting point of 80 to 82 °C, an IC50 [2, 13] of no more than 12.5 µM and an IC50 [2, 14] of no more than 12.5 µM. For the same molecule, the IC50 [2, 15] was no more than 12.5 µM, the IC50 [9] was no more than 12.5 µM and the IC50 [3] was no more than 12.5 µM. For the same molecule, the IC50 [6] was no more than 12.5 µM, the IC50 [7, 16] was no more than 12.5 µM and the IC100 [10] was no more than 12.5 µM. The IC100 [11] was no more than 12.5 µM, the IC100 [12] was greater than 12.5 µM and the IC50 [8] was 10 to 25 µM.
In the case of `COc1cc2c(Oc3c(Cl)cc(NS(=O)(=O)c4c(F)cccc4F)cc3Cl)ccnc2cc1OCCCN1CCC(C)CC1` [Example 209, N-(3,5-Dichloro-4-{6-methoxy-7-[3-(4-methyl-piperidin-1-yl)-propoxy]-quinolin-4-yloxy}-phenyl)-2,6-difluoro-benzenesulfonamide], the melting point is reported as 146 to 151 °C, the IC50 [2, 13] is reported as no more than 12.5 µM and the IC50 [2, 14] is reported as no more than 12.5 µM. It also gave an IC50 [2, 15] of no more than 12.5 µM, an IC50 [9] of no more than 12.5 µM and an IC50 [3] of no more than 12.5 µM. It also gave an IC50 [6] of no more than 12.5 µM, an IC50 [7, 16] of no more than 12.5 µM and an IC100 [10] of no more than 12.5 µM. For the same molecule, the IC100 [11] was no more than 12.5 µM, the IC100 [12] was no more than 12.5 µM and the IC50 [8] was no more than 10 µM.
`COc1cc2c(Oc3c(Cl)cc(NS(=O)(=O)c4ccccc4C(F)(F)F)cc3Cl)ccnc2cc1OCCCN1CCC(C)CC1` [Example 210, N-(3,5-Dichloro-4-{6-methoxy-7-[3-(4-methyl-piperidin-1-yl)-propoxy]-quinolin-4-yloxy}-phenyl)-2-trifluoromethyl-benzenesulfonamide] showed a melting point of 148 to 151 °C, an IC50 [2, 13] of no more than 12.5 µM and an IC50 [2, 14] of no more than 12.5 µM. It also gave an IC50 [2, 15] of no more than 12.5 µM, an IC50 [9] of no more than 12.5 µM and an IC50 [3] of no more than 12.5 µM. It also gave an IC50 [6] of no more than 12.5 µM, an IC50 [7, 16] of no more than 12.5 µM and an IC100 [10] of no more than 12.5 µM. The IC100 [11] was no more than 12.5 µM, the IC100 [12] was greater than 12.5 µM and the IC50 [8] was no more than 10 µM.
